Data as given in ChEMBL document CHEMBL5058646 (2022).

Molecular target: B-cell lymphoma 6 protein (Homo sapiens, UniProt P41182)
Assay: TR-FRET; call rule not given here

C[C@@H]1CN(c2nccc(Nc3ccc4c(c3)n(CCC(C)(C)O)c(=O)n4C)n2)C[C@H](C)C1(F)F
IC50: 21 µM (not active)
